Laboratory results reported in PubChem BioAssay AID588477 (NMMLSC, 2011).
Activity calls are given as the source filed them.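 Rule for the calls: active = valid curve fit with half-effect dose at most 10 µM and total binding change across doses of 30 points or more; inactive = the rest.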

Tests used:
[1] = inhibitors of Bodipy-GTP binding across eight GTPases, SAR follow-up, selectivity assay for Cdc42 probe extension project, biochemical, round 1 SAR, Mg buffer, multiplex flow cytometry (AID 588477); details: GST-GTPase beads, Cdc42 constitutively active
Cdc42 wt = experiment: as above; details: GST-GTPase beads

Compound	percent response (remaining binding) ([1]; at 100 µM (top of the series))	EC50 (Cdc42 wt)	EC50 [1]	percent response (remaining binding) (Cdc42 wt; at 100 µM (top of the series))
NS(=O)(=O)c1ccc(N2N=C(c3ccccc3)CC2c2ccccc2)cc1 (stereo unspecified)	inactive	7.26 µM		
COc1ccc(C2CC(c3ccccc3)=NN2c2ccc(S(N)(=O)=O)cc2)cc1 (stereo unspecified)		2.41 µM	3.69 µM	
O=C(C#Cc1ccccc1)c1cccc([N+](=O)[O-])c1			2.68 µM	inactive
